The results in this text go back to patent US11401264B2, “Heterocyclic compound” (Orizuru Therapeutics, Inc., priority 2018, dated 2022).

In the test the test system is cardiomyocytes from double knock-in human iPS cell lines (mCherry at TNNI3 locus). Kind of test: Experimental Example 1: mCherry (TNNI3 reporter) immunostaining measured by high contents screening. Format: cell-based. More on the design: key to average fluorescent intensity (at 30 μM): —: The symbol in Table 2 means that the average fluorescent intensity cannot be evaluated due to cell decrease. To be noted: read on 8th day, Alexa 647 anti-mCherry, control well 797; for average fluorescent intensity (at 1 μM): test compound 1 μM added on 3rd and 6th culture days; for average fluorescent intensity (at 30 μM): test compound 30 μM added on 3rd and 6th culture days. Here is the method:
For detection of cardiomyocyte maturation, double knock-in human iPS cell lines, in which reporter protein sequences, EmGFP (Sequence Number 1) and mCherry (Sequence Number 2) were inserted into gene loci for TNNI1 and TNNI3, respectively, were prepared (the human iPS cells were prepared from episomal vector (loaded gene; OCT3/4, KLF4, SOX2, L-MYC, LIN28, mouse p53DD) using PBMC (LP_167, Sample ID: 20130318) purchased from CTL (reference literature; Okita K, et al. Stem Cells. 2012 Nov. 29. doi: 10.1002/stem.1293)).
The maintenance culture of the above-mentioned reporter iPS cell lines was carried out by a conventional method (Okita K, et al. Stem Cells. 2012 Nov. 29. doi: 10.1002/stem.1293).
For differentiation induction into cardiomyocytes, the reporter iPS cell lines were treated with 0.5×TrypLE select (Life Technologies, diluted in 1/2 with 0.5 mM EDTA/PBS) for 4 to 5 minutes, and the cells were exfoliated using a cell scraper (IWAKI), and then dissociated into the single cell by pipetting. The medium was removed by centrifugation (1,000 rpm, 5 min), and the obtained cells were seeded on a bioreactor (ABLE) by 1×10^7 cells per 30 mL of the bioreactor, and then cultured in a medium prepared by adding 1% L-glutamine, transferrin 150 μg/mL, ascorbic acid 50 μg/mL (Sigma), monothioglycerol 4×10^−4 M, 10 μM Rock inhibitor (Y-27632), 2 ng/mL BMP4 (R&D) and 0.5% Matrigel (Growth Factor Reduced) to a medium after removal of solution C from StemFit AK02 (AJINOMOTO AK02, 400 mL of solution A and 100 mL of B solution, total 500 mL), at 37° C., under 5% oxygen condition (55 rpm, stirred suspension culture method) to form embryoid bodies (0 day).
Next day (1st day), 9 μL (final concentration 3 ng/mL) of 10 μg/mL activin A, 15 μL (final concentration 5 ng/mL) of 10 μg/mL bFGF and […] (final concentration 10 ng/mL) of 10 μg/mL BMP4 were added to the bioreactor, and the cells were cultured at 37° C. for additional 2 days, under 5% oxygen condition.
Then (3rd day), the obtained embryoid bodies were collected in a 50 mL centrifuge tube, and then subjected to centrifugation (200 g, 1 min). The medium was removed, and the embryoid bodies were cultured in a medium prepared by adding 1% L-glutamine, transferrin 150 μg/mL, ascorbic acid 50 μg/mL (Sigma), monothioglycerol 4×10^−4 M, 10 ng/mL VEGF, 1 μM IWP-3, 0.6 μM dorsomorphin and 5.4 μM SB431542 to a medium after removal of solution C from StemFit AK02 (AJINOMOTO AK02, 400 mL of solution A and 100 mL of B solution, total 500 mL), at 37° C. for 3 days, under 5% oxygen condition (55 rpm, stirred suspension culture method).
Then (6th day), the bioreactor was left to stand to precipitate the embryoid bodies, and 80 to 90% of the medium was removed. A medium prepared by adding 1% L-glutamine, transferrin 150 μg/mL, ascorbic acid 50 μg/mL (Sigma), monothioglycerol […] and 5 ng/mL VEGF to a medium after removal of solution C from StemFit AK02 (AJINOMOTO AK02, 400 mL of solution A and 100 mL of B solution, total 500 mL) was added to the bioreactor so that the total volume became 30 mL, and the embryoid bodies were cultured for 8 days, at 37° C., under 5% oxygen condition (55 rpm, stirred suspension culture method). During the culture, the medium was replaced with a medium under the same conditions every 2 to 3 days.
14th Day after the start of the differentiation induction, the embryoid bodies were treated with 2 mg/mL collagenase type I (Sigma) for 2 hr, and then with 0.25% trypsin/EDTA (Invitrogen) for 10 min. 50% FBS/IMDM (Thermo Fisher Science) was added thereto, and the embryoid bodies were dissociated into the single cell by pipetting, and then subjected to centrifugation (1,000 rpm, 5 minutes). […]

As to `Cc1ccc(NC(=O)COc2ccc(-c3nc4cc(N5Cc6cc(N7CCCCC7)ccc6C5=O)ccc4[nH]3)cc2)cc1` [Example 22, N-(4-methylphenyl)-2-(4-(5-(1-oxo-5-(piperidin-1-yl)-1,3-dihydro-2H-isoindol-2-yl)-1H-benzimidazol-2-yl)phenoxy)acetamide], the “average fluorescent intensity (at 1 μM)” value is recorded as 1211 and the “average fluorescent intensity (at 30 μM)” value was “—”.

For the compound `Cc1cccc(NC(=O)COc2ccc(-c3nc4cc(N5Cc6cc(N7CCCCC7)ccc6C5=O)ccc4[nH]3)cc2)c1` [Example 23, N-(3-methylphenyl)-2-(4-(5-(1-oxo-5-(piperidin-1-yl)-1,3-dihydro-2H-isoindol-2-yl)-1H-benzimidazol-2-yl)phenoxy)acetamide], the “average fluorescent intensity (at 1 μM)” value was 1386.

Consider `O=C(COc1ccc(-c2nc3cc(N4Cc5cc(N6CCCCC6)ccc5C4=O)ccc3[nH]2)cc1)NCCCc1ccccc1` [Example 24, 2-(4-(5-(1-oxo-5-(piperidin-1-yl)-1,3-dihydro-2H-isoindol-2-yl)-1H-benzimidazol-2-yl)phenoxy)-N-(3-phenylpropyl)acetamide], for which the “average fluorescent intensity (at 1 μM)” value came to 1241 and the “average fluorescent intensity (at 30 μM)” value is recorded as “—”.

With `O=C(COc1ccc(-c2nc3cc(N4Cc5cc(N6CCCCC6)ccc5C4=O)ccc3[nH]2)cc1)NC1CC1` [Example 25, N-cyclopropyl-2-(4-(5-(1-oxo-5-(piperidin-1-yl)-1,3-dihydro-2H-isoindol-2-yl)-1H-benzimidazol-2-yl)phenoxy)acetamide], the “average fluorescent intensity (at 1 μM)” value amounted to 1260 and the “average fluorescent intensity (at 30 μM)” value was determined as 900.

`CC(C)CNC(=O)COc1ccc(-c2nc3cc(N4Cc5cc(N6CCCCC6)ccc5C4=O)ccc3[nH]2)cc1` [Example 26, N-isobutyl-2-(4-(5-(1-oxo-5-(piperidin-1-yl)-1,3-dihydro-2H-isoindol-2-yl)-1H-benzimidazol-2-yl)phenoxy)acetamide]: the “average fluorescent intensity (at 1 μM)” value is 1809 and the “average fluorescent intensity (at 30 μM)” value is reported as “—”.

Take `O=C(COc1ccc(-c2nc3cc(N4Cc5cc(N6CCCCC6)ccc5C4=O)ccc3[nH]2)cc1)NCC1CC1` [Example 27, N-(cyclopropylmethyl)-2-(4-(5-(1-oxo-5-(piperidin-1-yl)-1,3-dihydro-2H-isoindol-2-yl)-1H-benzimidazol-2-yl)phenoxy)acetamide]: the “average fluorescent intensity (at 1 μM)” value stood at 1821 and the “average fluorescent intensity (at 30 μM)” value is recorded as “—”.

With `CCCNC(=O)COc1ccc(-c2nc3cc(N4Cc5cc(N6CCCCC6)ccc5C4=O)ccc3[nH]2)cc1` [Example 28, 2-(4-(5-(1-oxo-5-(piperidin-1-yl)-1,3-dihydro-2H-isoindol-2-yl)-1H-benzimidazol-2-yl)phenoxy)-N-propylacetamide], the “average fluorescent intensity (at 1 μM)” value is on record as 1540 and the “average fluorescent intensity (at 30 μM)” value is “—”.

Take `CC(C)NC(=O)COc1ccc(-c2nc3cc(N4Cc5cc(N6CCOCC6)ccc5C4=O)ccc3[nH]2)cc1` [Example 29, N-isopropyl-2-(4-(5-(5-(morpholin-4-yl)-1-oxo-1,3-dihydro-2H-isoindol-2-yl)-1H-benzimidazol-2-yl)phenoxy)acetamide]: the “average fluorescent intensity (at 1 μM)” value stood at 1120 and the “average fluorescent intensity (at 30 μM)” value was determined as 910.

In the case of `O=C(COc1ccc(-c2nc3cc(N4Cc5cc(N6CCOCC6)ccc5C4=O)ccc3[nH]2)cc1)NCC1CCOCC1` [Example 30, 2-(4-(5-(5-(morpholin-4-yl)-1-oxo-1,3-dihydro-2H-isoindol-2-yl)-1H-benzimidazol-2-yl)phenoxy)-N-(tetrahydro-2H-pyran-4-ylmethyl)acetamide], the “average fluorescent intensity (at 1 μM)” value amounted to 1005 and the “average fluorescent intensity (at 30 μM)” value came to 876.

Turning to `O=C(COc1ccc(-c2nc3cc(N4Cc5cc(N6CCOCC6)ccc5C4=O)ccc3[nH]2)cc1)NC1CCOCC1` [Example 31, 2-(4-(5-(5-(morpholin-4-yl)-1-oxo-1,3-dihydro-2H-isoindol-2-yl)-1H-benzimidazol-2-yl)phenoxy)-N-(tetrahydro-2H-pyran-4-yl)acetamide], the “average fluorescent intensity (at 1 μM)” value was determined as 736 and the “average fluorescent intensity (at 30 μM)” value came to 888.

Consider `O=C(COc1ccc(-c2nc3cc(N4Cc5cc(N6CCOCC6)ccc5C4=O)ccc3[nH]2)cc1)N1CCOCC1` [Example 32, 5-(morpholin-4-yl)-2-(2-(4-(2-(morpholin-4-yl)-2-oxoethoxy)phenyl)-1H-benzimidazol-5-yl)isoindolin-1-one], for which the “average fluorescent intensity (at 1 μM)” value stood at 1312 and the “average fluorescent intensity (at 30 μM)” value was 1937.

As to `O=C(COc1ccc(-c2nc3cc(N4Cc5cc(N6CCOCC6)ccc5C4=O)ccc3[nH]2)cc1)N1CCCCC1` [Example 33, 5-(morpholin-4-yl)-2-(2-(4-(2-oxo-2-(piperidin-1-yl)ethoxy)phenyl)-1H-benzimidazol-5-yl)isoindolin-1-one], the “average fluorescent intensity (at 1 μM)” value was 1568 and the “average fluorescent intensity (at 30 μM)” value is given as 3010.

For the compound `O=C(COc1ccc(-c2nc3cc(N4Cc5cc(N6CCOCC6)ccc5C4=O)ccc3[nH]2)cc1)N1CCCC1` [Example 34, 5-(morpholin-4-yl)-2-(2-(4-(2-oxo-2-(pyrrolidin-1-yl)ethoxy)phenyl)-1H-benzimidazol-5-yl)isoindolin-1-one], the “average fluorescent intensity (at 1 μM)” value came out at 1540 and the “average fluorescent intensity (at 30 μM)” value was “—”.

`O=C(COc1ccc(-c2nc3cc(N4Cc5cc(N6CCOCC6)ccc5C4=O)ccc3[nH]2)cc1)Nc1ccncc1` [Example 35, 2-(4-(5-(5-(morpholin-4-yl)-1-oxo-1,3-dihydro-2H-isoindol-2-yl)-1H-benzimidazol-2-yl)phenoxy)-N-(pyridin-4-yl)acetamide]: the “average fluorescent intensity (at 1 μM)” value came to 1536 and the “average fluorescent intensity (at 30 μM)” value turned out to be 1204.

On to `O=C(COc1ccc(-c2nc3cc(N4Cc5cc(N6CCOCC6)ccc5C4=O)ccc3[nH]2)cc1)NCc1ccccc1` [Example 36, N-benzyl-2-(4-(5-(5-(morpholin-4-yl)-1-oxo-1,3-dihydro-2H-isoindol-2-yl)-1H-benzimidazol-2-yl)phenoxy)acetamide], for which the “average fluorescent intensity (at 1 μM)” value is reported as 1006 and the “average fluorescent intensity (at 30 μM)” value is listed as 1743.

Regarding `O=C(COc1ccc(-c2nc3cc(N4Cc5cc(N6CCOCC6)ccc5C4=O)ccc3[nH]2)cc1)Nc1ccccc1` [Example 37, 2-(4-(5-(5-(rnorpholin-4-yl)-1-oxo-1,3-dihydro-2H-isoindol-2-yl)-1H-benzimidazol-2-yl)phenoxy)-N-phenylacetamide], the “average fluorescent intensity (at 1 μM)” value is given as 1696 and the “average fluorescent intensity (at 30 μM)” value was 1290.

For the compound `CN(C)C(=O)COc1ccc(-c2nc3cc(N4Cc5cc(N6CCOCC6)ccc5C4=O)ccc3[nH]2)cc1` [Example 38, N,N-dimethyl-2-(4-(5-(5-(morpholin-4-yl)-1-oxo-1,3-dihydro-2H-isoindol-2-yl)-1H-benzimidazol-2-yl)phenoxy)acetamide], the “average fluorescent intensity (at 1 μM)” value is 1633 and the “average fluorescent intensity (at 30 μM)” value is given as “—”.
